Experimental findings from patent US20060166934A1, “Composition comprising phytosphingosine derivatives for apoptosis induction” (Tae-Yoon Kim, priority 2002, published 2006) are described below.

Data set [1] can be described thus: MTT assay, combined administration with Vit D3 or calcipotriol. Type of data set: cell-based, human. The following applies: human, HaCaT cells, 1 μM singly, 24 hours, HaCaT; read-out: Cell viability. As to the method:
(§1) In order to study the synergistic effect in the cytotoxicity when the compositions of the present invention are administered in combination with Vit D3 or calcipotriol, the cell viability is analyzed by MTT assay method in HaCaT cells human keratinocyte cell line.
(§2) To HaCaT cells, 1 μM of Vit D3 or calcipotriol, or 10 μM each of NAPS and TAPS, is administered singly or in combination with each other, and they are cultured for 24 hours. And the effects of these drugs on the cytotoxicity according to the single or combined administration are observed by MTT assay. C2-ceramide is used for comparison.
(Tetrazolium dyes change colour on reduction, which living cells bring about.)

The subject of data set [2] is HaCaT cells human keratinocyte cell line. Described as above. Type of data set: cell-based. The conditions noted are these: 1 μM singly, 24 hours. The procedure:
as §1, §2

Data set [3] is described as follows: MTT assay, cytotoxicity in human keratinocyte cell line. The format is cell-based. The following applies: human, Cell viability. The procedure:
(§3) Firstly, the cytotoxicity is measured by the MTT assay. Phytosphingosine (PS), phytosphingosine-HCl (PS-HCl), C6-phytosphingosine (C6-PS), CLA-phytosphingosine (CLA-PS), tetraacetyl phytosphingosine (TAPS), and N-acetyl phytosphingosine (NAPS) are dissolved into DMSO to have the final concentration of 1-100 μM.
(§4) In order to study the effects of the compositions of the present invention on the cytotoxicity in the human keratinocyte cell line HaCaT cells, the cell viability is analyzed by the MTT (3-[4,5-dimethylthiazol-2-yl]-2,5-diphenyltetrazolium bromide) assay. HaCaT cells are supplied by Professor N. Fuseng of German Cancer Research in Germany. HaCaT cells are seeded in a density of 1×10^6 cells in a […] and cultured in DMEM (Dulbecco's Modified Eagle Medium) containing 10% fetal bovine serum (FBS, GIBCO), 100 units/ml penicillin, and 100 μg/ml streptomycin for 48 hours. They are treated with trypsin and 1-2×10^4 cells per well are seeded again in a 96-well plate by using a serum-free culture medium, about 3 hours after which they are cultured by treatment with phytosphingosine derivatives. After they are cultured for 24 hours, the MTT reagent is added at a concentration of 2 mg/ml, cultured for 4 hours, suspended in DMSO after removing the culture medium completely in order to measure O.D. at 540 nm. C2-ceramide is used for comparison.

Data set [4] can be described thus: MTT assay, cytotoxicity in human skin cancer cell line. Type of data set: cell-based. The conditions noted are these: human, Cell viability. As to the method:
as §3, §4
(§5) In order to study the effects of the compositions of the present invention on the cytotoxicity in A431 cells, human skin cancer cell line, the MTT assay is used. The method of cell culture and MTT assay are the same as those in the above method. C2-ceramide is used for comparison.

Data set [5] deals with A431 cells, human skin cancer cell line. Described as above. Type of data set: cell-based. The following applies: human, 24 h. As to the method: as §3, §4, §5
Data set [6] in a line: MTT assay, cytotoxicity in HUVEC. Type of data set: cell-based, human. The conditions noted are these: human. As to the method: as §3, §4
(§6) The MTT assay is used for the above purpose. Primary human umbilical vein endothelial cells are cultured from the human umbilical vein. The method of cell culture and the MTT assay are the same as those in the above. C2-ceramide is used for comparison.

In data set [7] the test system is human umbilical vein endothelial cells (HUVEC). Description: MTT assay, cytotoxicity in HUVEC. The format is cell-based. The following applies: human, 24 h, 30 μM. As to the method: as §3, §4, §6
Data set [8] can be described thus: MTT assay, cytotoxicity in immune cells separated from spleen of mice. Type of data set: cell-based. The following applies: BDF, mouse. The procedure:
The effect of the composition of the present invention on the cytotoxicity in immune cells (T cells, B cells, macrophages, monocytes, etc.) was examined. The spleen was removed from normal mice (BDF) and single cells were obtained from the spleen by mechanical aggregation method. And mononuclear cells containing T cells, B cells, macrophages and monocytes were isolated from single cells by density gradient centrifugation method using Ficoll Hypaque. Briefly, single cells were treated with PBS and overlayed on Ficoll Hypaque and centrifuged at 1500 rpm for 30 min. After centrifugation, the cells around the boundary of the Ficoll-Hapaque were collected and washed three times with PBS. The isolated cells were cultured for 24 hours in the presence of 1, 10, 50 and 100 μM of NAPS, TAPS, and PS to examine the effect of cytotoxicity, i.e. the degree of proliferation of the cells. C2-ceramide was used as control. The medium used in this experiment was RPMI 1640 suplemented with 10% of FBS and 100 μg/ml of penicillin and streptomycin.

In data set [9] the test system is Th1 cells activation. Description: Mixed leukocyte reaction (MLR), Th1 cells activation by TNBSO3, MTT assay. Type of data set: cell-based, mice. The following applies: MLR with TNBSO3-conjugated stimulator cells, FIG. 4. As to the method:
Whether the composition of the present invention has a suppressive effect on the Th1 cells activation which isolate […], IL-12, etc. by reacting with TNBSO3 […] was examined.
The mononuclear cells obtained from spleen of mice as described the above 4 were used for responder cells, and TNBSO3-conjugated cells were used for stimulator cells. The stimulator cells were obtained as follows:
The mononuclear cells were adjusted to be 2×10^7 cells/ml in PBS and the same volume of 20 mM TNBSO3 was added and incubated at 37° C. for 10 min in the dark state. After incubation, the cells wrer washed three times with PBS.
(§7) Each 2×10^5 responder cells and stimulator cells were mixed with each other and cultured for 5 days on the 96-well plate. And RPMI with 10% of serum was used as a medium.
(§8) The above cells were cultured for 24 hours in the presence of 1, 10, 50 and 100 μM of NAPS, TAPS, and PS to examine the proliferation of the cells.
(§9) C2-ceramide was used as control.

Data set [10] concerns Th1 cells activation against allogenic cells (PBMC). Kind of data set: Reactions among allogenic cells, Th1 cells activation, MTT assay. Type of data set: cell-based, human. The conditions noted are these: FIG. 5.
Text: Whether the composition of the present invention has a suppressive effect on the Th1 cells activation by allogenic cells in immune reation was examined.
PBMC obtained from different volunteers as described in the above 5 were used for responder cells and stimulator cells respectively. PBMC for stimulator cells were used after X-ray irradiation (3000 rad) to inhibit the proliferation of stimulator cells.
as §7, §8, §9

A short description of data set [11]: MTT assay, combined treatment with UVB irradiation. Type of data set: cell-based, human. Further details: Cell viability: unit not given here. The conditions noted are these: human, HaCaT cells, HaCaT, read-out: Cell viability. As to the method:
(§10) In order to study the synergistic effect in the cytotoxicity by the cotreatment with administration of the compositions of the present invention and with UVB irradiation, the cell viability is analyzed by MTT assay method in HaCaT cells. On a 100-mm dish, 1×10^6 HaCaT cells are seeded and cultured in DMEM containing 10% fetal bovine serum, 100 units/ml penicillin, and 100 μg/ml streptomycin for 48 hours. They are treated with trypsin, and 1-2×10^4 cells per well are seeded on a 96-well plate again by using a serum-free medium, which is removed after about 3 hours. HaCaT cells are washed with PBS three times, and 3.5 ml of PBS per plate is added. It is then irradiated with 200 J/m^2 of UVB. After irradiation, the medium is replaced with a DMEM medium. Then it is treated with the phytosphingosine derivatives of the present invention, and cultured for 24 hours. After 2 mg/ml of the MTT reagent is added, it is cultured for 4 hours. The medium is removed completely, the cells are suspended in DMSO, and O.D. is measured at 540 nm.

Data set [12] relates to HaCaT cells. Description: MTT assay, combined treatment with UVB irradiation. The conditions noted are these: 1 μM, no UVB, 24 hours, HaCaT. The format is cell-based, human. On the set-up: Cell viability: unit not given here. As to the method: as §10

Like-named read-outs stand apart in the source and are kept apart here.

A word on the viability: it is a read-out of living cells in per cent, often relative to untreated cells. Take `C=C1/C(=C\C=C2/CCC[C@]3(C)[C@@H]([C@H](C)/C=C/[C@@H](O)C4CC4)CC[C@@H]23)C[C@@H](O)C[C@@H]1O` [calcipotriol, reference compound]: the viability at 24 h, 1 µM in [1] was found to be 77 ± 5%. Also, the toxicity in [2] was found to be 23%.

One may read the IC50 as the concentration that inhibits the measured activity by half. Take `CCCCCCCCCCCCCC[C@@H](O)[C@@H](O)[C@@H](N)CO` [PS, phytosphingosine]: the viability at 24 h, 1 µM in data set [3] came out at 97 ± 11.1%; in data set [11] (1 μM + UVB 200 J/m^2, 24 hours), 38 ± 7.9%. The viability at 24 h, 3 µM in [3] is 93 ± 3%; in data set [4], 85 ± 10.7%; in data set [11] (3 μM + UVB 200 J/m^2, 24 hours), 30 ± 3.3%; in data set [11] (3 μM, no UVB, 24 hours), 93 ± 5.5%. Also, the viability at 24 h, 10 µM in data set [3] was found to be 86 ± 10.1%; in [11] (10 μM + UVB 200 J/m^2, 24 hours) it was 3 ± 0.9%; in data set [11] (10 μM, no UVB, 24 hours) it was 71 ± 7.6%. The viability at 24 h, 30 µM in data set [3] was 51 ± 9.6%; in [6], 13 ± 1%. In [4], this compound displayed a viability at 24 h, 50 µM of 2 ± 0.2%. The Cell viability was determined as 30 ± 1.9 in data set [5] (10 µM) and 133 ± 3.4 in data set [12]. The figures for the cytotoxicity in [5] (50 μM) and in [7] were 95-98% and 86-91%, respectively. The viability at 24 h, 3.5 µM in data set [6] is 64 ± 4.7%. For the same compound, the viability at 24 h, 7 µM in [6] turned out to be 19 ± 1.8%. In data set [6], this compound registered a viability at 24 h, 15 µM of 14 ± 0.9%. In data set [8], this compound returned an IC50 at 24 h of around 75 µM. In addition, in data set [9], the “concentration showing a suppressive effect on Th1 cells activation” value is 50 µM. Besides, the “suppressive effect on Th1 cells activation against allogenic cells” value in data set [10] (50 μM) is reported as “suppress completely”. Besides, in [10], the “concentration showing a suppressive effect on Th1 cells activation against allogenic cells” value is reported as 50 μM. Also, the viability at 24 h, 5 µM in [11] (5 μM + UVB 200 J/m^2, 24 hours) is 28 ± 2.3%; in data set [11] (5 μM, no UVB, 24 hours), 85 ± 10.6%.
